Results taken from patent US8975417B2, “Pyrazolopyrrolidine derivatives and their use in the treatment of disease” (Novartis AG, priority 2013, dated 2015).

How the values were obtained:
His-Brd4(44-477) = His-Brd4(44-477) (Homo sapiens (Human), UniProt O60885); assay: TR-FRET in-vitro binding assay for BRD4; settings: biochemical
Outline: (§1)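 His-tagged BRD2(60-472), BRD3(20-477) or BRD4(44-477), 45 nM in dispensing solution, with 60 nM tetra-acetylated histone H4 peptide (AcK5/8/12/16) in dispensing solution; HEPES pH 7.5, 50 mM NaCl, 0.1% BSA, 30 °C, 35 min. Eu-anti-His6 antibody plus streptavidin-APC added for TR-FRET read-out; 8-point compound dilutions.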

His-Brd2(60-472) = His-Brd2(60-472) (Homo sapiens (Human), UniProt P25440); assay: TR-FRET in-vitro binding assay for BRD2; settings: biochemical
Outline: as §1

His-Brd3(20-477) = His-Brd3(20-477) (Homo sapiens (Human), UniProt Q15059); assay: TR-FRET in-vitro binding assay for BRD3; settings: biochemical
Outline: as §1

[1] = target: His-CREBBP (1081-1197) bromodomain (Homo sapiens (Human), UniProt Q92793); assay: AlphaScreen in-vitro binding assay for CREBBP; settings: biochemical
Outline: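 Ni-chelate acceptor and streptavidin donor beads (45 µg/mL each, in 50 mM HEPES pH 7.5, 150 mM NaCl, 0.02% BSA) were then added for 60 min at room temperature. IC50 came from 8-point non-linear regression.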

MV-4-11 cells = assay: Cell growth inhibition assay (CellTiter-Glo), MV-4-11; type: cell-based; settings: Homo sapiens, MV4-11, read-out: MV-4-11 TGI
Experimental: (§2) Cell Growth Inhibition Assay
(§3) The human leukemia cell lines MV-4-11, THP-1 and K-562 were employed to characterize the effect of BET inhibitors on cellular proliferation and viability. Cells were obtained from the American Type Culture Collection (ATCC) and cultured at 37° C. in a humidified 5% CO2 incubator in the following media: MV-4-11: DMEM high glucose (Animed #1-26F01-I), 10% FCS (Animed #2-01F26-I), 4 mM L-Glutamine (Animed #5-10K50), 1 mM Sodium Pyruvate (Animed # G03625P), 1× Penicillin-Streptomycin (Animed # F12478P); K-562: Iscove's MEM (Animed #1-28F16-I), 10% FCS (Animed #2-01F26-I), 4 mM L-Glutamine (Animed #5-10K50), 1× Penicillin-Streptomycin (Animed # F12478P); THP-1: RPMI-1640 (Animed #1-41F01-I), 10% FCS (Animed #2-01F26-I), 2 mM L-Glutamine (Animed #5-10K50), 10 mM HEPES (Animed #5-31F100), 1 mM Sodium Pyruvate (Animed # G03625P), 1× Penicillin-Streptomycin (Animed # F12478P). The AML lines MV-4-11 and THP-1 are very sensitive to BET inhibitors and show massive cell death upon BET inhibition (Zuber et al., Nature, 478 (2011), 524-8). Compound-mediated suppression of cell proliferation/viability was assessed by quantification of cellular ATP levels using the CellTiter-Glo (CTG) reagent (Promega). Briefly, cells were seeded in 20 μl fresh medium into 384-well plates, followed by addition of 5 μL medium containing compound dilutions at 5-fold their final intended concentration. Dose-response effects were assessed by 3-fold serial dilutions of the test compound, starting at 10 μM. Following incubation of the cells for days at 37° C. and 5% CO2, the effect of inhibitors on cell viability was quantified following addition of 20 μl CTG and luminescence quantification (integration time: 100 ms) as per vendor manual, using a correspondingly equipped Tecan M200 multi-mode platereader (TECAN, Switzerland). For data analysis, the assay background value determined in wells containing medium, but no cells, was subtracted from all data points. To enable differentiation of cytotoxic from cytostatic compounds, the number of viable cells is assessed relative to that observed at the time of compound addition using a separate cell plate (day 0). The effect of a particular test compound concentration on cell proliferation/viability is expressed as percentage of the background- and day 0-corrected luminescence reading obtained for cells treated with vehicle only (DMSO, 0.1% final concentration), which is set as 100%, whereas that luminescence reading for wells containing medium is set as −100%. Compound concentrations leading to half-maximal (IC50) and total growth inhibition (TGI) were determined using standard four parameter curve fitting.

THP-1 cells = assay: Cell growth inhibition assay (CellTiter-Glo), THP-1; type: cell-based; settings: Homo sapiens, read-out: THP-1 TGI
Experimental: as §2, §3

K-562 cells = assay: Cell growth inhibition assay (CellTiter-Glo), K-562; type: cell-based, human; settings: Homo sapiens, K562, read-out: K-562 TGI
Experimental: as §2, §3

His-CREBBP (1081-1197) bromodomain, sequence (Q92793 1081-1197): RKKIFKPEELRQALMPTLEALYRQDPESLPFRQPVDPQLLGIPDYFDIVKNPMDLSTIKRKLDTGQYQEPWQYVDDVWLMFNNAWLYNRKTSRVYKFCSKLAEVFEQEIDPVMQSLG
His-Brd2(60-472), sequence (P25440 60-472): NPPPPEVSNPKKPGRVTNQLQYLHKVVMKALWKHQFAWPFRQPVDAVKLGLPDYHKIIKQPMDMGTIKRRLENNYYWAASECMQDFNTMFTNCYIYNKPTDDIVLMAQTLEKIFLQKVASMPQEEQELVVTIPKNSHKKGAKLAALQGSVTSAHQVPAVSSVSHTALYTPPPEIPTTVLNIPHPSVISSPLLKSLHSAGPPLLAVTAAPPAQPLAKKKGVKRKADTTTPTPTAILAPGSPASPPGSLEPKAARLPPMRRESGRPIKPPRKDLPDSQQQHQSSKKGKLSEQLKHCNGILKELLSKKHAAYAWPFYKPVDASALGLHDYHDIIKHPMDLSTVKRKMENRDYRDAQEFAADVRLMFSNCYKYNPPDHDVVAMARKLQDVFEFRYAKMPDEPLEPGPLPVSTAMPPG
His-Brd3(20-477), sequence (Q15059 20-477): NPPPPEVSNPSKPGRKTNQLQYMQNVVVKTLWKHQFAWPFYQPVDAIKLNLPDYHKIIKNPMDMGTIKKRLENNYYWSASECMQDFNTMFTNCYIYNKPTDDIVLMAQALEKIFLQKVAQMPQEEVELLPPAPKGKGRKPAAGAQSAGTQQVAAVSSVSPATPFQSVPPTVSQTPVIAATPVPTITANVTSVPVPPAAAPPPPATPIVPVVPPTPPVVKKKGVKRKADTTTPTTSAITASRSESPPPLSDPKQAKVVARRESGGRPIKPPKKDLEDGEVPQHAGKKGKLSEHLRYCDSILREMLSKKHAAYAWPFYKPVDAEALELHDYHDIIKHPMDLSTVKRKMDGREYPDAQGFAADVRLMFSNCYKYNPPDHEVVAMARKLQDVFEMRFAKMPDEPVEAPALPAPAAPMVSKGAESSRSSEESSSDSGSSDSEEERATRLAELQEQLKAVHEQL

Structure (SMILES)	IC50 (His-Brd4(44-477)) [nM]	IC50 (His-Brd2(60-472)) [nM]	IC50 (His-Brd3(20-477)) [nM]	IC50 [1] [nM]	IC (total growth inhibition) (MV-4-11 cells) [µM]	IC (total growth inhibition) (THP-1 cells) [µM]	IC (total growth inhibition) (K-562 cells) [µM]
CCn1nc2c(c1C)C(c1ccc(F)cc1F)N(c1cc(C)c3nnc(C)n3c1)C2=O (centres unmarked) [Example 182, 4-(2,4-difluorophenyl)-5-(3,8-dimethyl-[1,2,4]triazolo[4,3-a]pyridin-6-yl)-2-ethyl-3-methyl-4,5-dihydropyrrolo[3,4-c]pyrazol-6(2H)-one]	46	120	51	27000	0.12	0.217	> 10
Cn1cc(N2C(=O)c3c(cnn3C3CC3)C2c2ccc(Cl)cc2)cc(Cl)c1=O (centres unmarked) [Example 35, 5-(5-chloro-1-methyl-6-oxo-1,6-dihydropyridin-3-yl)-4-(4-chlorophenyl)-1-cyclopropyl-4,5-dihydropyrrolo[3,4-c]pyrazol-6(1H)-one]	150	140	160	7400	0.23	0.427	> 10
Cc1cc(N2C(=O)c3c(c(CO)nn3C3CC3)[C@H]2c2ccc(Cl)cc2)cn2c(C)nnc12 [Example 166, (R)-4-(4-chlorophenol)-1-cyclopropyl-5-(3,8-dimethyl-[1,2,4]triazolo[4,3-a]pyridin-6-yl)-3-(hydroxymethyl)-4,5-dihydropyrrolo[3,4-c]pyrazol-6(1H)-one]	< 11	16	13	14000	0.0262	0.0539	> 10
CCn1nc(C)c2c1C(=O)N(c1cc(C)c(=O)n(C)c1)C2c1ccc(Cl)cc1F (centres unmarked) [Example 170, 4-(4-chloro-2-fluorophenyl)-5-(1,5-dimethyl-6-oxo-1,6-dihydropyridin-3-yl)-1-ethyl-3-methyl-4,5-dihydropyrrolo[3,4-c]pyrazol-6(1H)-one]	15	16	13	630	0.0159	0.0331	> 10
Cc1n[nH]c2c1[C@@H](c1ccc(Cl)cc1)N(c1cc(C)c3nnc(C)n3c1)C2=O [Example 165, (R)-4-(4-chlorophenyl)-5-(3,8-dimethyl-[1,2,4]triazolo[4,3-a]pyridin-6-yl)-3-methyl-4,5-dihydropyrrolo[3,4-c]pyrazol-6(1H)-one]	15	17	23	4600	0.0396	0.0921	> 10
COc1ncc(-n2nc3c(c2C)C(c2ccc(Cl)cc2)N(c2cc(C)c(=O)n(C)c2)C3=O)c(OC)n1 (centres unmarked) [Example 56, 4-(4-chlorophenyl)-2-(2,4-dimethoxypyrimidin-5-yl)-5-(1,5-dimethyl-6-oxo-1,6-dihydropyridin-3-yl)-3-methyl-4,5-dihydropyrrolo[3,4-c]pyrazol-6(2H)-one]	95	69	61	560	0.0981	0.124	> 10
Cc1cc(N2C(=O)c3nn(C(C)C)c(C)c3C2c2ccc(F)cc2F)cn2c(C)nnc12 (centres unmarked) [Example 175, 4-(2,4-difluorophenyl)-5-(3,8-dimethyl-[1,2,4]triazolo[4,3-a]pyridin-6-yl)-2-isopropyl-3-methyl-4,5-dihydropyrrolo[3,4-c]pyrazol-6(2H)-one]	34	72	37	13000	0.0867	0.131	> 10
CCn1nc(C)c2c1C(=O)N(c1cc(C)c3nnc(C)n3c1)C2c1ccc(Cl)cc1F (centres unmarked) [Example 185, 4-(4-chloro-2-fluorophenyl)-5-(3,8-dimethyl-[1,2,4]triazolo[4,3-a]pyridin-6-yl)-1-ethyl-3-methyl-4,5-dihydropyrrolo[3,4-c]pyrazol-6(1H)-one]	< 37	71	36	14200	0.0427	0.0877	> 10

Continued by falling IC50 (His-Brd4(44-477)), values first:

IC50 (His-Brd4(44-477)) [nM]	IC50 (His-Brd2(60-472)) [nM]	IC50 (His-Brd3(20-477)) [nM]	IC50 [1] [nM]	Structure (SMILES)	IC (total growth inhibition) (MV-4-11 cells) [µM]	IC (total growth inhibition) (THP-1 cells) [µM]	IC (total growth inhibition) (K-562 cells) [µM]
410	560	290	8200	Cc1nn(C)c2c1C(c1ccc(Cl)cc1)N(c1cc(Cl)c(=O)n(C)c1)C2=O (centres unmarked) [Example 58, 5-(5-chloro-1-methyl-6-oxo-1,6-dihydropyridin-3-yl)-4-(4-chlorophenyl)-1,3-dimethyl-4,5-dihydropyrrolo[3,4-c]pyrazol-6(1H)-one]	0.157	0.38	> 10
97	220	110	> 37000	Cc1n[nH]c2c1C(c1ccc(F)cc1F)N(c1cc(C)c3nnc(C)n3c1)C2=O (centres unmarked) [Example 172, 4-(2,4-difluorophenyl)-5-(3,8-dimethyl-[1,2,4]triazolo[4,3-a]pyridin-6-yl)-3-methyl-4,5-dihydropyrrolo[3,4-c]pyrazol-6(2H)-one]	0.323	0.782	> 10
87	130	100	4700	COc1ncc(-n2nc3c(c2C(C)C)C(c2ccc(Cl)cc2)N(c2cc(C)c4onc(C)c4c2)C3=O)c(OC)n1 (centres unmarked) [Example 46, 4-(4-chlorophenyl)-2-(2,4-dimethoxypyrimidin-5-yl)-5-(3,7-dimethylbenzo[d]-isoxazol-5-yl)-3-isopropyl-4,5-dihydropyrrolo[3,4-c]pyrazol-6(2H)-one]	0.166	0.323	> 10
67	60	72	1700	COc1ncc(-n2nc3c(c2C(C)C)[C@@H](c2ccc(Cl)cc2)N(c2cc(C)c4onc(C)c4c2)C3=O)c(OC)n1 [Example 62, (R)-4-(4-chlorophenyl)-2-(2,4-dimethoxypyrimidin-5-yl)-5-(3,7-dimethylbenzo[d]-isoxazol-5-yl)-3-isopropyl-4,5-dihydropyrrolo[3,4-c]pyrazol-6(2H)-one]	0.105	0.174	> 10
44	37	40	950	CCc1c2c(nn1C1CC1)C(=O)N(c1cc(C)c(=O)n(C)c1)C2c1ccc(Cl)cc1 (centres unmarked) [Example 68]	0.0692	0.117	> 10
29	47	36	24000	COc1ncccc1-n1nc(C)c2c1C(=O)N(c1cc(C)c3nnc(C)n3c1)C2c1ccc(Cl)cc1F (centres unmarked) [Example 184, 4-(4-chloro-2-fluorophenyl)-5-(3,8-dimethyl-[1,2,4]triazolo[4,3-a]pyridin-6-yl)-1-(2-methoxypyridin-3-yl)-3-methyl-4,5-dihydropyrrolo[3,4-c]pyrazol-6(1H)-one]	0.136	0.337	> 10
